Assay results published in ChEMBL document CHEMBL1201862, “PubChem BioAssay data set” (2004).
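Protocol summary: plate cells (96-well), add compound at 5 concentrations, incubate 48 h, interpolate endpoints linearly. The concentration for 50% growth inhibition is given as GI50.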 Activity calls are given as the source filed them. Rule as the data show it: active = GI50 up to about 1.1 µM and inactive = higher.

Assays:
Assay in all cases: growth of human tumour cells (NCI), 48 h
[1] = test system: RXF 393
[2] = test system: HOP-92
[3] = test system: A549
[4] = test system: SK-MEL-5
[5] = test system: CAKI-1
[6] = test system: SF-268
[7] = test system: CCRF-CEM
[8] = test system: OVCAR-5
[9] = test system: HCT-15
[10] = test system: SK-OV-3
[11] = test system: RPMI-8226
[12] = test system: NCI-H226
[13] = test system: HCC 2998
[14] = test system: HOP-62
[15] = test system: K562
[16] = test system: HT-29
[17] = test system: ACHN
[18] = test system: SR

SMILES | GI50 [1] | GI50 [2] | GI50 [3] | GI50 [4] | GI50 [5] | GI50 [6] | GI50 [7] | GI50 [8] | GI50 [9] | GI50 [10] | GI50 [11] | GI50 [12] | GI50 [13] | GI50 [14] | GI50 [15] | GI50 [16] | GI50 [17] | GI50 [18]
CC(=O)O[C@H]1[C@H](O[C@H]2CC[C@]34C[C@]35CC[C@]3(C)[C@@H]([C@@]6(C)CC[C@@H](C(C)(C)O)O6)[C@@H](O)C[C@@]3(C)[C@@H]5C[C@H](O[C@@H]3O[C@H](CO)[C@@H](O)[C@H](O)[C@H]3O)[C@H]4C2(C)C)OC[C@@H](O)[C@@H]1O | > 100 µM (inactive) | > 100 µM (inactive) | > 100 µM (inactive) | > 100 µM (inactive) | > 100 µM (inactive) | > 100 µM (inactive) | 31.6 µM (inactive) | 72.6 µM (inactive) | 42.2 µM | > 100 µM (inactive) | 52.6 µM (inactive) | > 100 µM (inactive) | > 100 µM (inactive) | > 100 µM (inactive) | 45.3 µM (inactive) | 85.5 µM (inactive) | > 100 µM (inactive) | 
O=C1c2ccccc2C(=O)N1CCn1ccc(NC(c2ccccc2)(c2ccccc2)c2ccccc2)nc1=O | 18.8 µM (inactive) | 18.5 µM (inactive) | 28.2 µM (inactive) | 17.5 µM (inactive) | 9.62 µM (inactive) | 19.2 µM (inactive) | 20.1 µM (inactive) | 25.1 µM (inactive) | 22.5 µM | 43.8 µM (inactive) | 19.8 µM (inactive) | 18.7 µM (inactive) | 21.4 µM (inactive) | 17.5 µM (inactive) | 20.3 µM (inactive) | 16.8 µM (inactive) | 22.5 µM (inactive) | 
O=C1CCC2(c3ccccc3)Nc3ncccc3N12 (stereo unspecified) | > 100 µM (inactive) | > 100 µM (inactive) | > 100 µM (inactive) | > 100 µM (inactive) | > 100 µM (inactive) | > 100 µM (inactive) | > 100 µM (inactive) | > 100 µM (inactive) | > 100 µM | > 100 µM (inactive) | > 100 µM (inactive) | > 100 µM (inactive) | > 100 µM (inactive) | > 100 µM (inactive) | > 100 µM (inactive) | > 100 µM (inactive) | > 100 µM (inactive) | 
CC(=O)Oc1ccccc1 [ACETIC ACID PHENYL ESTER] | > 100 µM (inactive) |  | > 100 µM (inactive) | > 100 µM (inactive) | > 100 µM (inactive) | > 100 µM (inactive) | > 100 µM (inactive) | > 100 µM (inactive) | > 100 µM |  | > 100 µM (inactive) | > 100 µM (inactive) | > 10 µM (inactive) | > 100 µM (inactive) | > 100 µM (inactive) | > 100 µM (inactive) | > 100 µM (inactive) | 
CCCC1C(=O)C(CC)Cc2c(OC)ccc(OC)c21 (stereo unspecified) | > 100 µM (inactive) | > 100 µM (inactive) | > 100 µM (inactive) | > 100 µM (inactive) | > 100 µM (inactive) | > 100 µM (inactive) | > 100 µM (inactive) | > 100 µM (inactive) | > 100 µM | > 100 µM (inactive) | > 100 µM (inactive) | > 100 µM (inactive) | > 100 µM (inactive) | > 100 µM (inactive) | > 100 µM (inactive) | > 100 µM (inactive) | > 100 µM (inactive) | 
CCN(CC)CC(=O)N1CCc2c([nH]c3ccccc23)C1c1cccnc1 (stereo unspecified) |  | 31.4 µM (inactive) | > 100 µM (inactive) | > 100 µM (inactive) | > 100 µM (inactive) | > 100 µM (inactive) | > 100 µM (inactive) | > 100 µM (inactive) | > 100 µM | > 100 µM (inactive) | 71.8 µM (inactive) |  | > 100 µM (inactive) | > 100 µM (inactive) | > 100 µM (inactive) | > 100 µM (inactive) | > 100 µM (inactive) | 
COc1ccc(N2C(=O)C(N3C(=O)C=CC3=O)C2C=O)cc1 (stereo unspecified) |  | > 100 µM (inactive) | > 100 µM (inactive) | > 100 µM (inactive) | > 100 µM (inactive) | > 100 µM (inactive) | > 100 µM (inactive) | > 100 µM (inactive) | > 100 µM | > 100 µM (inactive) | > 100 µM (inactive) |  | > 100 µM (inactive) | > 100 µM (inactive) | > 100 µM (inactive) | > 100 µM (inactive) | > 100 µM (inactive) | > 100 µM (inactive)
COc1cc(C)c2c(c1)CN1CN2Cc2cc(OC)cc(C)c21 |  | 35.3 µM (inactive) | 96.4 µM (inactive) | 3.66 µM (inactive) | > 100 µM (inactive) | 48.1 µM (inactive) | 65.6 µM (inactive) | 27.9 µM (inactive) | 34.8 µM | > 100 µM (inactive) | 43.8 µM (inactive) | 49.5 µM (inactive) |  | 65.6 µM (inactive) | 46.9 µM (inactive) | 74.8 µM (inactive) | 37.8 µM (inactive) | 36.1 µM (inactive)
N#CCc1cccc(CC#N)c1Br | 35 µM (inactive) | 45.2 µM (inactive) | > 100 µM (inactive) |  | > 100 µM (inactive) | 86.5 µM (inactive) | > 100 µM (inactive) | > 100 µM (inactive) | > 100 µM | > 100 µM (inactive) | > 100 µM (inactive) | > 100 µM (inactive) |  | > 100 µM (inactive) | > 100 µM (inactive) | > 100 µM (inactive) | > 100 µM (inactive) | > 100 µM (inactive)
NC(=O)N/N=C/C(=C/Nc1ccccc1)[N+](=O)[O-] | > 100 µM (inactive) | 79.3 µM (inactive) | > 100 µM (inactive) | > 100 µM (inactive) |  | > 100 µM (inactive) | > 100 µM (inactive) |  | > 100 µM | > 100 µM (inactive) | > 100 µM (inactive) |  | > 100 µM (inactive) | > 100 µM (inactive) | > 100 µM (inactive) | > 100 µM (inactive) | > 100 µM (inactive) | > 100 µM (inactive)
COc1cc(C[S+]2CCCC2)c(SC)cc1C[S+]1CCCC1 | > 100 µM (inactive) | > 100 µM (inactive) | > 100 µM (inactive) | > 100 µM (inactive) | > 100 µM (inactive) | > 100 µM (inactive) | > 100 µM (inactive) | > 100 µM (inactive) | > 100 µM | > 100 µM (inactive) | > 100 µM (inactive) | > 100 µM (inactive) | > 100 µM (inactive) | > 100 µM (inactive) | > 100 µM (inactive) | > 100 µM (inactive) | > 100 µM (inactive) | 
COc1ccc(C23c4ccc(OC)cc4CC2(c2ccc([N+](=O)[O-])cc2)Cc2cc(OC)ccc23)cc1 (stereo unspecified) |  | > 21.9 µM (inactive) | > 21.2 µM (inactive) | > 21.7 µM (inactive) | > 27.2 µM (inactive) | > 22.3 µM (inactive) | > 40.9 µM (inactive) | > 25.9 µM (inactive) | > 93.5 µM | > 28.2 µM (inactive) | > 27.4 µM (inactive) | > 57.1 µM (inactive) |  | > 14.1 µM (inactive) | > 37.6 µM (inactive) | > 23.3 µM (inactive) | > 39.4 µM (inactive) | 
Cn1c2cccc3nnc4cccc(c4c32)n1C | > 100 µM (inactive) | > 100 µM (inactive) | > 100 µM (inactive) | > 100 µM (inactive) | 21.2 µM (inactive) | > 100 µM (inactive) | > 100 µM (inactive) | > 100 µM (inactive) | > 100 µM |  | > 100 µM (inactive) | 45.8 µM (inactive) | > 100 µM (inactive) |  | > 100 µM (inactive) | > 100 µM (inactive) | > 100 µM (inactive) | 
COc1nc(NC2OC(COC(C)=O)C(OC(C)=O)C(OC(C)=O)C2OC(C)=O)c2c(OC(C)=O)cc(=O)oc2n1 (stereo unspecified) | > 100 µM (inactive) | > 100 µM (inactive) | > 100 µM (inactive) | > 100 µM (inactive) | > 100 µM (inactive) |  | > 100 µM (inactive) | > 100 µM (inactive) | > 100 µM | > 100 µM (inactive) | > 100 µM (inactive) | > 100 µM (inactive) | > 100 µM (inactive) | > 100 µM (inactive) | > 100 µM (inactive) | > 100 µM (inactive) | 12.5 µM (inactive) | 
O=C(NC1C2CC3CC(C2)CC1C3)c1ccncn1 (stereo unspecified) |  | > 100 µM (inactive) | > 100 µM (inactive) | > 100 µM (inactive) | > 100 µM (inactive) | > 100 µM (inactive) | > 100 µM (inactive) | > 100 µM (inactive) | > 100 µM |  |  | > 100 µM (inactive) | > 100 µM (inactive) | > 100 µM (inactive) | > 100 µM (inactive) | > 100 µM (inactive) | > 100 µM (inactive) | 
CCOC(=O)c1cnc2c(ccc3ncccc32)c1NCCCN(CC)CC |  | 65.8 µM (inactive) | > 100 µM (inactive) | > 100 µM (inactive) | > 100 µM (inactive) | 90.6 µM (inactive) | 38.4 µM (inactive) | > 100 µM (inactive) | 80.5 µM | > 100 µM (inactive) | 38.2 µM (inactive) | > 100 µM (inactive) | > 100 µM (inactive) | > 100 µM (inactive) | 27.2 µM (inactive) | 39.1 µM (inactive) | > 100 µM (inactive) | 
N#Cc1c([N+](=O)[O-])cc(C(F)(F)F)cc1[N+](=O)[O-] | 2.44 µM (inactive) | 1.81 µM (inactive) | 19.5 µM (inactive) | 15.3 µM (inactive) | 4.57 µM (inactive) | 13.1 µM (inactive) | 1.09 µM (active) | 18.1 µM (inactive) | 8.89 µM | 19.1 µM (inactive) | 2.57 µM (inactive) | 21.6 µM (inactive) |  | 18.4 µM (inactive) | 2.05 µM (inactive) | 2.96 µM (inactive) | 7.5 µM (inactive) | 2.16 µM (inactive)
